Results reported in the supplement of paper PMC11451515.

System: P12-Ichikawa
Experiment: cell viability relative to DMSO control; higher = less cytotoxic
Settings: 48 h
In short: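 Cells were incubated for 48 h at 37°C before CellTiter-Glo One luminescence was read. The cells were NOMO1 or SEM (500 cells/well) or P12-Ichikawa (1000 cells/well) leukemia cells, adapted for at least four passages in each medium and seeded in 1536-well plates (5 μl). Dosing used library compounds in DMSO applied by pin over 11 threefold points, 47 μM to 0.79 nM. Viability is the per-plate percentage of DMSO wells, with cell-free wells as background.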

[1] = HPLM + 10% dialyzed FBS, 0.000781 µM
[2] = HPLM + 10% dialyzed FBS, 0.00234 µM
[3] = HPLM + 10% dialyzed FBS, 0.00702 µM
[4] = HPLM + 10% dialyzed FBS, 0.0211 µM
[5] = HPLM + 10% dialyzed FBS, 0.0632 µM
[6] = HPLM + 10% dialyzed FBS, 0.19 µM
[7] = HPLM + 10% dialyzed FBS, 0.569 µM
[8] = HPLM + 10% dialyzed FBS, 1.71 µM
[9] = HPLM + 10% dialyzed FBS, 5.12 µM
[10] = HPLM + 10% dialyzed FBS, 15.4 µM
[11] = HPLM + 10% dialyzed FBS, 46.1 µM
[12] = RPMI 5 mM glucose + 10% FBS, 0.000781 µM
[13] = RPMI 5 mM glucose + 10% FBS, 0.00234 µM
[14] = RPMI 5 mM glucose + 10% FBS, 0.00702 µM
[15] = RPMI 5 mM glucose + 10% FBS, 0.0211 µM
[16] = RPMI 5 mM glucose + 10% FBS, 0.0632 µM
[17] = RPMI 5 mM glucose + 10% FBS, 0.19 µM
[18] = RPMI 5 mM glucose + 10% FBS, 0.569 µM
[19] = RPMI 5 mM glucose + 10% FBS, 1.71 µM
[20] = RPMI 5 mM glucose + 10% FBS, 5.12 µM
[21] = RPMI 5 mM glucose + 10% FBS, 15.4 µM
[22] = RPMI 5 mM glucose + 10% FBS, 46.1 µM
[23] = RPMI 5 mM glucose + 10% dialyzed FBS, 0.000781 µM
[24] = RPMI 5 mM glucose + 10% dialyzed FBS, 0.00234 µM
[25] = RPMI 5 mM glucose + 10% dialyzed FBS, 0.00702 µM
[26] = RPMI 5 mM glucose + 10% dialyzed FBS, 0.0211 µM
[27] = RPMI 5 mM glucose + 10% dialyzed FBS, 0.0632 µM
[28] = RPMI 5 mM glucose + 10% dialyzed FBS, 0.19 µM
[29] = RPMI 5 mM glucose + 10% dialyzed FBS, 0.569 µM
[30] = RPMI 5 mM glucose + 10% dialyzed FBS, 1.71 µM
[31] = RPMI 5 mM glucose + 10% dialyzed FBS, 5.12 µM
[32] = RPMI 5 mM glucose + 10% dialyzed FBS, 15.4 µM
[33] = RPMI 5 mM glucose + 10% dialyzed FBS, 46.1 µM

Row | Compound | cell viability [1] | cell viability [2] | cell viability [3] | cell viability [4] | cell viability [5] | cell viability [6] | cell viability [7] | cell viability [8] | cell viability [9] | cell viability [10] | cell viability [11] | cell viability [12] | cell viability [13] | cell viability [14] | cell viability [15] | cell viability [16] | cell viability [17] | cell viability [18] | cell viability [19] | cell viability [20] | cell viability [21] | cell viability [22] | cell viability [23] | cell viability [24] | cell viability [25] | cell viability [26] | cell viability [27] | cell viability [28] | cell viability [29] | cell viability [30] | cell viability [31] | cell viability [32] | cell viability [33]
1 | [NH2][Pt]1([NH2])[O]CC(=O)[O]1 | 93.6% | 98.4% | 101% | 95.7% | 105% | 102% | 102% | 101% | 105% | 103% | 105% | 98.5% | 88.3% | 96.9% | 99.5% | 104% | 99.2% | 102% | 88.5% | 92.4% | 95.2% | 102% | 86.2% | 93% | 96.4% | 89.4% | 92.1% | 89.9% | 97.8% | 89.6% | 91.1% | 92.4% | 93.8%
2 | OC1=CC=C(C=C1)\C2=C\OC3=C(C=CC(=C3)O)C2=O | 112% | 107% | 105% | 97.2% | 110% | 104% | 102% | 99.2% | 92.7% | 102% | 98.1% | 98.3% | 90.4% | 103% | 99.1% | 100% | 87% | 90.9% | 89.5% | 92.9% | 86.9% | 89.7% | 100% | 96.3% | 95.4% | 99.9% | 97.3% | 96.7% | 95.8% | 98.1% | 93.1% | 90.3% | 88%
3 | CCC[C@H](NC(=O)/C(C#N)=C/c1cccc(Br)n1)c1ccccc1 | 122% | 121% | 121% | 102% | 124% | 121% | 113% | 113% | 112% | 103% | 6.91% | 130% | 122% | 122% | 111% | 120% | 116% | 128% | 122% | 111% | 103% | 5.26% | 116% | 131% | 125% | 114% | 114% | 121% | 121% | 121% | 107% | 94.4% | 5.69%
4 | O=C([O-])C(O)Cc1ccc(O)c(O)c1 (configuration not stated) | 109% | 107% | 99.1% | 110% | 111% | 106% | 104% | 93.7% | 95.7% | 90.2% | 90.1% | 101% | 96.6% | 107% | 99.6% | 99.4% | 98.3% | 92.6% | 90.2% | 99.9% | 81.8% | 83.3% | 95% | 99.2% | 99.9% | 95.5% | 92.3% | 96.8% | 93.2% | 87.9% | 89% | 74.6% | 83.5%
